Assay results published in the CheMixHub ionic liquid set.

Assay: xn = mol fraction of the nth substance listed
Conditions: 100 kPa

CCCCCCCC[n+]1ccccc1.[Br-] + NCC(=O)NCC(=O)O + O
electrical conductivity [S/m]
Conditions	288.15 K	293.15 K	298.15 K	303.15 K	308.15 K
x2 = 0.0008948, x1 = 0.00597	–	–	–	–	2.18
x2 = 0.0008948, x1 = 0.005972	–	–	1.72	1.92	–
x2 = 0.0008948, x1 = 0.005974	1.34	1.52	–	–	–
x2 = 0.000895, x1 = 0.005737	–	–	–	–	2.13
x2 = 0.000895, x1 = 0.005739	–	1.48	1.68	1.88	–
x2 = 0.000895, x1 = 0.005741	1.31	–	–	–	–
x2 = 0.0008953, x1 = 0.005443	–	–	1.62	1.82	2.05
x2 = 0.0008953, x1 = 0.005445	1.27	1.44	–	–	–
x2 = 0.0008956, x1 = 0.005122	–	–	1.57	1.76	1.98
x2 = 0.0008956, x1 = 0.005124	1.22	1.39	–	–	–
x2 = 0.0008959, x1 = 0.004789	–	1.34	1.51	1.69	1.88
x2 = 0.0008959, x1 = 0.00479	1.18	–	–	–	–
x2 = 0.0008962, x1 = 0.004442	1.14	1.29	1.45	1.62	1.79
x2 = 0.0008965, x1 = 0.004038	–	–	–	–	1.69
x2 = 0.0008965, x1 = 0.004039	1.07	1.21	1.36	1.52	–
x2 = 0.000897, x1 = 0.00359	–	–	1.26	1.4	1.55
x2 = 0.000897, x1 = 0.003592	0.984	1.12	–	–	–
x2 = 0.0008974, x1 = 0.003106	0.886	1	1.13	1.26	1.39
x2 = 0.0008979, x1 = 0.002563	0.768	0.87	0.975	1.09	1.19
x2 = 0.0008984, x1 = 0.002015	0.637	0.721	0.807	0.898	0.973
x2 = 0.0008987, x1 = 0.001634	0.54	0.61	0.682	0.758	0.823
x2 = 0.0008991, x1 = 0.001218	0.424	0.477	0.533	0.592	0.657
x2 = 0.0008995, x1 = 0.0007371	0.298	0.332	0.369	0.406	0.467
x2 = 0.001787, x1 = 0.006313	–	–	–	–	2.23
x2 = 0.001787, x1 = 0.006315	–	–	1.76	1.95	–
x2 = 0.001787, x1 = 0.006317	1.36	1.53	–	–	–
x2 = 0.001788, x1 = 0.005888	–	–	1.69	1.87	2.13
x2 = 0.001788, x1 = 0.00589	1.31	1.47	–	–	–
x2 = 0.001789, x1 = 0.005263	–	–	–	1.76	1.98
x2 = 0.001789, x1 = 0.005265	1.23	1.38	1.57	–	–
x2 = 0.001789, x1 = 0.005589	–	–	1.63	1.81	2.05
x2 = 0.001789, x1 = 0.005591	1.27	1.43	–	–	–
x2 = 0.00179, x1 = 0.004922	–	–	1.51	1.69	1.88
x2 = 0.00179, x1 = 0.004924	1.18	1.33	–	–	–
x2 = 0.001791, x1 = 0.004115	–	1.2	1.35	1.51	1.68
x2 = 0.001791, x1 = 0.004116	1.06	–	–	–	–
x2 = 0.001791, x1 = 0.004536	–	–	–	–	1.78
x2 = 0.001791, x1 = 0.004537	1.13	1.27	1.44	1.61	–
x2 = 0.001792, x1 = 0.003673	–	–	–	1.4	1.54
x2 = 0.001792, x1 = 0.003675	0.984	1.12	1.26	–	–
x2 = 0.001793, x1 = 0.003161	0.886	0.997	1.12	1.25	1.38
x2 = 0.001794, x1 = 0.002599	0.766	0.862	0.967	1.08	1.18
x2 = 0.001795, x1 = 0.001992	0.62	0.699	0.783	0.87	0.87
x2 = 0.001796, x1 = 0.001587	0.515	0.581	0.65	0.724	0.724
x2 = 0.001797, x1 = 0.0007376	0.292	0.326	0.36	0.389	0.389
x2 = 0.001797, x1 = 0.001185	0.405	0.456	0.51	0.566	0.566
